Results on three compounds are retold here after US8901158B2, “Treatment of bipolar disorder” (Isis Innovation Ltd., priority 2011, dated 2014).

The target of data set [1] is T1, human inositol monophosphatase (Homo sapiens, UniProt P29218).
T1 construct: made in house; host or cells: E. coli BL21 (DE3) pLysS
T1 sequence (P29218 1-277): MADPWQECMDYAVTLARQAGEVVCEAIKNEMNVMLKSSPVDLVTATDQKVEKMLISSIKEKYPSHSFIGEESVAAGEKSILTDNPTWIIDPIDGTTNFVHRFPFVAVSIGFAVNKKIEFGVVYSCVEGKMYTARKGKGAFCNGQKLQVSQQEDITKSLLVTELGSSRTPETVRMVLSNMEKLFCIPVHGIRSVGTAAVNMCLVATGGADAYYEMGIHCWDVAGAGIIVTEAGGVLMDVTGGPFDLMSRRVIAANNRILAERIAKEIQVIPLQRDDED
The data set is described as follows: in vitro IMPase inhibition, malachite green phosphate assay. It is filed as biochemical. Conditions: for IC50: human IMPase, constant amount of inositol monophosphate. An excerpt: Human inositol monophosphatase cDNA was ordered from Geneservice, Source Bioscience, Cambridge, UK. The cDNA was inserted into plasmid pRSET5a, which was then transformed into JM109 competent cells. These cells were allowed to multiply and the plasmid was then extracted from the cells. The plasmid was then transformed into expression bacteria, E.coli strain BL21 (DE3) pLysS. […] The next day the cells were lysed and the soluble fraction, which contained the enzyme, was collected. Purification was carried out in 3 stages. The soluble fraction was heated at 68° C. for 1 hour and then centrifuged. The supernatant was taken and run through a Q-sepharose column (Pharmacia). Different fractions were collected and assessed for activity. The active fractions were then passed through a Tricorn MonoQ 5/50 GL column (GE Healthcare, UK) for further purification.
Each enzymatic reaction using human inositol monophosphatase contained 0.00013 mg of enzyme (0.0673 mg/mL). The substrate inositol monophosphate (Alexis Chemicals) was diluted with the appropriate buffer to make up a concentration of 50 mM stock. The stock was then diluted with buffer to yield the following concentrations of substrate: 0 mM, 0.1 mM, 0.5 mM, 1.0 mM, 1.5 mM, 2.5 mM, 5 mM, 10 mM, 20 mM, 25 mM and 30 mM. From this 2 μL of substrate was added to each reaction well giving a tenfold dilution of substrate to 0 mM, 0.01 mM, 0.05 mM, 0.1 mM, 0.15 mM, 0.25 mM, 0.5 mM, 1 mM, 2 mM, 2.5 mM and 3 mM. The reaction buffer contained 1 mM EGTA, 150 mM KCl, 3 mM MgCl2, 0.5 ng/mL BSA, 50 mM Tri, HCl, pH 7.4 and 0.01% Triton X100.
A malachite green assay was used for the quantitative determination of free inorganic phosphate present at the end of the IMPase reaction. This involved dissolving 4.2% w/v ammonium molybdate in 4M hydrochloric acid. The Malachite Green itself was made up to 0.045% w/v concentration. From these stocks, a 3:1 malachite green:ammonium molybdate mixture was prepared and vortexed for thirty minutes. The malachite green forms a complex of ammonium molybdate:malachite green:inorganic phosphate in the presence of free inorganic phosphate. To each reaction plate, duplicate wells of a range of known phosphate concentrations were prepared within the concentration range of 0-300 μM with each well containing 20 μL of solution. The phosphate standards were made from serial dilutions of 1M potassium dihydrogen phosphate using double distilled H2O. To each well was added 180 μL of malachite green:ammonium molybdate mix. The colour produced by the reaction between the inorganic phosphate and malachite green:ammonium molybdate was proportional to the amount of phosphate present. The colour was allowed to develop for 15 min and then the plate was read on a TECAN Sunrise microplate reader at 595 nm wavelength.
For the reactions whose results are shown in FIG. 2, lithium (Sigma) was dissolved in double-distilled H2O and diluted appropriately to the concentration of 10 mM with 2 μL of lithium being added per well to yield a final well concentration of 1 mM. Stock concentrations of lithium were also made from this. L690330 was purchased from Sigma Chemicals, and was made up to a 1 mM stock concentration using H2O. From this stock the following concentrations were prepared using serial dilutions with water: 300 μM to 30 nM. These concentrations were used to produce a concentration-inhibition curve for the enzyme. Ebselen was purchased from BioFocus as a 10 mM stock in DMSO. […]

Data set [2] deals with rats. Conditions: cited from earlier work.
For data set [3], the system named is mice. The data set is described as follows: rearing experiments (infrared beam breaks, open-field test). It is filed as in vivo, mouse. The conditions noted are these: p=0.023 (FIG. 9). How it is done: Rearing experiments were also carried out as follows. Mice were allowed to move freely within a caged equipped with infrared beam lines placed at two heights.
Mice could only break the upper beams by rearing.

Data set [4] relates to mice. The data set is described as follows: amphetamine-induced hyperactivity (animal model of mania). It counts as in vivo, mouse. Conditions: ebselen i.p., d-amphetamine 4 mg/kg after 60 minutes, 60 to 120 minutes, p<0.001 (FIGS. 7, 8). How it is done: Activity and monitoring evaluation of mice was also studied. Mice were given an i.p. injection with saline (control) or ebselen (1, 5 or 10 mg/kg) and placed in a 35×35 cm perspex arena where their location was recorded by the Ethovision videotracking system (Noldus, Wageningen, The Netherlands). After 60 minutes, the mice were injected with d-amphetamine (4 mg/kg) or control. The Ethovision system follows the centre of the body of the mouse and records its position according to the location of this point. Data analysis was performed by Ethovision software, and distances moved within each 5 minute interval were calculated and plotted. The total distance moved was computed for the time frame from 60 to 120 minutes following the beginning of data acquisition. Amphetamine-induced hyperactivity is used as an animal model of mania, and is sensitive to mood-stabilising drugs such as lithium.

Data set [5] concerns mice. The data set is described as follows: rearing experiments with intracerebroventricular inositol. It is filed as in vivo, mouse. The conditions noted are these: ebselen 5 mg/kg i.p., after 60 minutes 5.5 μmol inositol intracerebroventricular (FIG. 10). How it is done:
In these rearing experiments, mice were given an intraperitoneal injection of control or ebselen (5 mg/kg), and after 60 minutes were given an intracerebroventricular injection of control or 5.5 μmol inositol.

For data set [6], the system named is inositol levels in mice brains. The data set is described as follows: ex vivo inositol levels in mice brains by 1H NMR. On the set-up: species or system mouse. Conditions: 1 hour after intraperitoneal injection, p<0.001 (FIG. 6). On the procedure:
Similar conclusions can be reached from the results shown in FIG. 6, in which inositol levels in mice brains were measured ex vivo using ^1H NMR spectroscopy. The results were obtained from brains removed from mice 1 hour after intraperitoneal injection either with ebselen or with a control.

Data set [7] has as its system inositol monophosphatase. The data set is described as follows: mouse ex vivo assay of IMPase activity in brain homogenate. The conditions noted are these: 5 mg/kg i.p., CD1 male mice, 1 hour (FIG. 5). On the procedure:
To determine the bio-availability of ebselen, a mouse ex vivo assay was used. In this assay mice were given an intraperitoneal (i.p.) injection of 5 mg/kg ebselen solublized in betacyclodextrin, according to the following procedure. A stock solution of 0.5 M ebselen in DMSO and a stock of 40% 2-Hydroxy propyl-beta-cyclodextrin (HPBCD) were made. A 3.5 mM solution of ebselen (from 0.5 M stock) was made into 40% HPBCD and finally, to obtain the concentration of 350 μM ebselen, a 1 in 10 dilution was carried out. A control solution was made containing the same dilution of DMSO and HPBCD. The volume of drug/vehicle injected i.p. into the mouse was 1 ml (for the animals dosed with ebselen this is approximately 5 mg/kg assuming each mouse weighs about 20 g). CD1 male mice, weighing approximately 20 g were used. The animals were dosed for one hour with either drug or vehicle before being killed by cervical dislocation. The brains were quickly dissected out and frozen in liquid nitrogen. […]
The protein concentration of each brain homogenate was determined and a stock of 2.5 mg of protein was made from the homogenate and stored. […] The intensity of the green color formed was measured at 595 nm.

Data set [8] concerns the target T2, bovine IMPase (Bos taurus, UniProt P20456).
T2 sequence (P20456 1-277): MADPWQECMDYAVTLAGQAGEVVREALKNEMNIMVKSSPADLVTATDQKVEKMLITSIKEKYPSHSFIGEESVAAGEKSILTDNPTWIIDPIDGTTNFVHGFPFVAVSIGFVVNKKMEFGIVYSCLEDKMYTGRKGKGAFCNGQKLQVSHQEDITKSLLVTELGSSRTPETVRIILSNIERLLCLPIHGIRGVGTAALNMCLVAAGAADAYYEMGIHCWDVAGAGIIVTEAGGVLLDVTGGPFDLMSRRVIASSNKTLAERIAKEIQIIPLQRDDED
Conditions: reported value; cited from earlier work.

As for `O=c1c2ccccc2sn1-c1ccccc1` [2-phenyl-1,2-benzisothiazol-3(2H)-one], in data set [1] (30 μM compound (FIG. 4)), the “in vitro inhibition of IMPase” value is “inhibition of IMPase is also achieved”. The compound also gave an IC50 in data set [1] of 35 µM.

Consider `O=c1c2ccccc2[se]n1-c1ccccc1` [Ebselen, 2-phenyl-1,2-benzisoselenazol-3(2H)-one], for which, in data set [2], the LD50 entry was “greater than 1000 mg/kg”. The “number of beam breaks (rearing) during the open-field test” value in data set [3] is on record as “significantly reduced”. In data set [4], the “level of amphetamine-induced hyperactivity” value is given as “reduced level of amphetamine-induced hyperactivity”. The compound further gave a concentration for half-maximal inhibition (IC50) in data set [1] of roughly 2 µM. Besides, in data set [1] (purified human IMPase, various ebselen and substrate concentrations (FIG. 3)), the mode of inhibition entry is reported as “non-competitive mode of inhibition”. Besides, in data set [5], the “effects of ebselen on suppressing rearing behaviour after inositol injection” value is reported as “significantly reduced”. For the same compound, the “inositol levels in the brain versus control” value in data set [6] is listed as “significantly lower”. Moreover, the “amount of phosphate detected (IMPase activity in brain homogenate) compared to the control” value in data set [7] was “significantly lower”.

Regarding `CC(Oc1ccc(O)cc1)(P(=O)(O)O)P(=O)(O)O` [L690330], the IC50 in data set [8] is roughly 0.3 µM; in data set [1] it was 1.5 µM.
